{
  "source": "patent US20050250137A1",
  "about": "“Molecular targets of cancer and aging” (priority 2002, published 2005)",
  "test_system": "immortal (high passage) MDAH041 cells",
  "data": [
    {"smiles": "Nc1ncn([C@H]2C[C@H](O)[C@@H](CO)O2)c(=O)n1", "note": "[5-aza-dC, 5-aza-2′-deoxycytidine]", "values": [
      {"measurement": "2-5A synthetase induced by interferon OAS-1 expression", "result": 76.5, "unit": "fold"},
      {"measurement": "2-5 oligoadenylate synthetase 59 kDa OAS-L expression", "result": 40.0, "unit": "fold"},
      {"measurement": "041 5-aza Ave Signal Log", "result": 0.93},
      {"measurement": "(2-5′) oligoadenylate synthetase 59 kDa isoform OAS-L expression", "result": 40.0, "unit": "fold"},
      {"measurement": "ALDH1A3 expression, 5A", "result": 2.8, "unit": "fold"},
      {"measurement": "ALDH1A3 expression, IM vs 5-aza-dC, MA", "result": 2.8, "unit": "fold"},
      {"measurement": "Adlican expression", "result": 17.6, "unit": "fold"},
      {"measurement": "Aldehyde dehydrogenase 6 expression", "result": 4.1, "unit": "fold"},
      {"measurement": "Aortic carboxypeptidase-like protein expression", "result": 12.3, "unit": "fold"},
      {"measurement": "Associated molecule with the SH3 domain of STAM expression", "result": 7.6, "unit": "fold"},
      {"measurement": "B2-bradykinin receptor, 3 expression", "result": 3.8, "unit": "fold"},
      {"measurement": "B94 protein (tumor necrosis factor-alpha-inducible) expression", "result": 5.5, "unit": "fold"},
      {"measurement": "BAC clone RG118D07 from 7q31 expression", "result": 5.5, "unit": "fold"},
      {"measurement": "BST-2 (bone marrow stroma cell surface gene) expression", "result": 38.7, "unit": "fold"},
      {"measurement": "Beta-thromboglobin-like protein expression", "result": 17.5, "unit": "fold"},
      {"measurement": "Bone morphogenetic protein 2A expression", "result": 9.9, "unit": "fold"},
      {"measurement": "CDNA DKFZp564H142 expression", "result": 9.5, "unit": "fold"},
      {"measurement": "CIG5 (cytomegalovirus induces interferon-responsive) expression", "result": 66.6, "unit": "fold"},
      {"measurement": "CIG5 vipirin expression", "result": 67.0, "unit": "fold"},
      {"measurement": "CIG49 (cytomegalovirus induces interferon-responsive) expression", "result": 70.2, "unit": "fold"},
      {"measurement": "CIG49 Interferon-induced protein with tetratricopepide repeats 4 expression", "result": 70.2, "unit": "fold"},
      {"measurement": "CLTB expression, 5A", "result": 1.5, "unit": "fold"},
      {"measurement": "CLTB expression, IM vs 5-aza-dC, MA", "result": 1.5, "unit": "fold"},
      {"measurement": "CREG expression, 5A", "result": 2.2, "unit": "fold"},
      {"measurement": "CREG expression, IM vs 5-aza-dC, MA", "result": 2.21, "unit": "fold"},
      {"measurement": "CYP1B1 expression, 5A", "result": 8.2, "unit": "fold"},
      {"measurement": "Carbonic anhydrase precursor (CA 12) expression", "result": 8.9, "unit": "fold"},
      {"measurement": "Complement cytolysis inhibitor (CLI) expression", "result": 5.1, "unit": "fold"},
      {"measurement": "Complement factor H expression", "result": 6.8, "unit": "fold"},
      {"measurement": "Cysteine-rich heart protein expression", "result": 8.8, "unit": "fold"},
      {"measurement": "Cytokine (GRO-beta, GRO-2) expression", "result": 29.6, "unit": "fold"},
      {"measurement": "Cytokine (GRO-gamma) expression", "result": 56.8, "unit": "fold"},
      {"measurement": "DUSP6 (dual specificity MAP kinase-phosphatase) expression", "result": 4.6, "unit": "fold"},
      {"measurement": "Dickkopf-1 (hdkk-1) expression", "result": 14.4, "unit": "fold"},
      {"measurement": "Dioxin-inducible cytochrome P450 (CYP1B1) expression", "result": 6.9, "unit": "fold"},
      {"measurement": "Dual-specificity protein phosphatase expression", "result": 12.6, "unit": "fold"},
      {"measurement": "FLJ14675 expression, 5A", "result": 3.8, "unit": "fold"},
      {"measurement": "Factor H homologue expression", "result": 7.5, "unit": "fold"},
      {"measurement": "Fibulin-2 expression", "result": 21.8, "unit": "fold"},
      {"measurement": "Gamma-interferon-inducible protein (IP-30) expression", "result": 31.2, "unit": "fold"},
      {"measurement": "Genes for histones H2B.1 and H2A expression", "result": 4.3, "unit": "fold"},
      {"measurement": "Gravin expression", "result": 12.2, "unit": "fold"},
      {"measurement": "HEM45 (interferon-stimulated gene, 20-kd; ISG20) expression", "result": 50.2, "unit": "fold"},
      {"measurement": "HEM45, ISG-20 expression", "result": 50.2, "unit": "fold"},
      {"measurement": "HLA class I locus C heavy chain expression", "result": 5.7, "unit": "fold"},
      {"measurement": "HLA-F, gene for major histocompatibility complex class I F expression", "result": 29.4, "unit": "fold"},
      {"measurement": "HPS5 expression, 5A", "result": 1.6, "unit": "fold"},
      {"measurement": "HSPA2 expression, 5A", "result": 1.6, "unit": "fold"},
      {"measurement": "HSPA2 expression, IM vs 5-aza-dC, MA", "result": 1.6, "unit": "fold"},
      {"measurement": "HTATIP2 expression, 5A", "result": 5.6, "unit": "fold"},
      {"measurement": "IGFBP3 expression, IM vs 5-aza-dC, MA", "result": 2.48, "unit": "fold"},
      {"measurement": "IGFBP4 expression, IM vs 5-aza-dC, MA", "result": 3.72, "unit": "fold"},
      {"measurement": "Inhibitor of apoptosis protein 1 expression", "result": 13.1, "unit": "fold"},
      {"measurement": "Insulin-like growth factor binding protein 6 expression", "result": 5.9, "unit": "fold"},
      {"measurement": "Insulin-like growth factor binding protein-4 expression", "result": 3.8, "unit": "fold"},
      {"measurement": "Integral membrane glycoprotein LIG-1 (TM4SF1) expression", "result": 5.2, "unit": "fold"},
      {"measurement": "Interferon regulatory factor 7B expression", "result": 17.5, "unit": "fold"},
      {"measurement": "Interferon, alpha-inducible protein 27 expression", "result": 482.0, "unit": "fold"},
      {"measurement": "Interferon-induced p78, Mx1 expression", "result": 202, "unit": "fold"},
      {"measurement": "Interferon-induced p78, MxB expression", "result": 122.1, "unit": "fold"},
      {"measurement": "Interferon-inducible 56 Kd protein expression", "result": 36.6, "unit": "fold"},
      {"measurement": "Interferon-inducible 56 kDa protein expression", "result": 36.6, "unit": "fold"},
      {"measurement": "Interferon-inducible membrane protein 9-27 (IFITM1) expression", "result": 8.8, "unit": "fold"},
      {"measurement": "Interferon-inducible peptide (6-16) expression", "result": 10.2, "unit": "fold"},
      {"measurement": "Interferon-inducible protein 9-27 expression", "result": 8.8, "unit": "fold"},
      {"measurement": "Interferon-inducible protein (Absent in Melanoma 2, AIM2) expression", "result": 21.6, "unit": "fold"},
      {"measurement": "Interferon-inducible protein AIM2 (absent in melanoma) expression", "result": 21.6, "unit": "fold"},
      {"measurement": "Interferon-inducible protein Mx1 expression", "result": 42, "unit": "fold"},
      {"measurement": "Interferon-inducible protein p78, Mx2 expression", "result": 202, "unit": "fold"},
      {"measurement": "Interferon-stimulated gene p27 mRNA expression", "result": 482.0, "unit": "fold"},
      {"measurement": "Interleukin 8 expression", "result": 92.7, "unit": "fold"},
      {"measurement": "K12 protein precursor (SECTM1) expression", "result": 19.6, "unit": "fold"},
      {"measurement": "KIAA0744 protein expression", "result": 8.6, "unit": "fold"},
      {"measurement": "KIAA 1077 protein Sulfatase FP expression", "result": 10.9, "unit": "fold"},
      {"measurement": "KIAA1750 expression, 5A", "result": 2.9, "unit": "fold"},
      {"measurement": "KIAA1750 expression, IM vs 5-aza-dC, MA", "result": 2.88, "unit": "fold"},
      {"measurement": "Keratin 18 expression", "result": 13.5, "unit": "fold"},
      {"measurement": "Ly-6-related protein (9804) gene expression", "result": 34.1, "unit": "fold"},
      {"measurement": "MAP1LC3B expression, 5A", "result": 1.7, "unit": "fold"},
      {"measurement": "Major group rhinovirus receptor (HRV) ICAM expression", "result": 28.9, "unit": "fold"},
      {"measurement": "Major group rhinovirus receptor (HRV) expression", "result": 28.9, "unit": "fold"},
      {"measurement": "Melanoma growth stimulatory activity (MGSA) (GRO-1) expression", "result": 64.6, "unit": "fold"},
      {"measurement": "Microphage migration inhibitory factor (MIF) expression", "result": 42.1, "unit": "fold"},
      {"measurement": "Microtubular protein 44 expression", "result": 17.8, "unit": "fold"},
      {"measurement": "Microtubular protein p44 (IFI44) expression", "result": 17.8, "unit": "fold"},
      {"measurement": "NK4 protein (natural killer cell transcript 4) expression", "result": 20.2, "unit": "fold"},
      {"measurement": "Neurite outgrowth-promoting protein expression", "result": 7.1, "unit": "fold"},
      {"measurement": "Neuromedin B Precursor expression", "result": 5.6, "unit": "fold"},
      {"measurement": "Nk4 protein (natural killer cell transcript 4) expression", "result": 20.2, "unit": "fold"},
      {"measurement": "OPTN expression, 5A", "result": 2.6, "unit": "fold"},
      {"measurement": "OPTN expression, IM vs 5-aza-dC, MA", "result": 2.6, "unit": "fold"},
      {"measurement": "Optineurin-like protein expression", "result": 4.2, "unit": "fold"},
      {"measurement": "PCTAIRE 2 (pctaire protein kinase) expression", "result": 19.3, "unit": "fold"},
      {"measurement": "Pig 7 expression", "result": 9.4, "unit": "fold"},
      {"measurement": "Placental protein 5 (PP5) expression", "result": 29.3, "unit": "fold"},
      {"measurement": "Placental tissue factor (two forms) expression", "result": 8.7, "unit": "fold"},
      {"measurement": "Putative monocarboxylate transporter expression", "result": 6.3, "unit": "fold"},
      {"measurement": "Rad (Ras associated with diabetes) expression", "result": 19.7, "unit": "fold"},
      {"measurement": "Retinoic acid receptor responder 3 expression", "result": 7.1, "unit": "fold"},
      {"measurement": "SERPINB2 expression, 5A", "result": 4.2, "unit": "fold"},
      {"measurement": "SERPINB2 expression, IM vs 5-aza-dC, MA", "result": 4.2, "unit": "fold"},
      {"measurement": "STAT1α expression, IM vs 5-aza-dC, MA", "result": 2.92, "unit": "fold"},
      {"measurement": "Signal Transducer Activator of Transcription 1 STAT1 91 kDa expression", "result": 7.6, "unit": "fold"},
      {"measurement": "Similar to gb: L 19779 HISTONE H2A.1 expression", "result": 10.3, "unit": "fold"},
      {"measurement": "Skin collagenase MMP1 expression", "result": 4.8, "unit": "fold"},
      {"measurement": "TESTIN 3 testis derived transcript (3 LIM domains) expression", "result": 8.1, "unit": "fold"},
      {"measurement": "TNF-related apoptosis inducing ligand TRAIL expression", "result": 42.2, "unit": "fold"},
      {"measurement": "TNF-related apoptosis inducing ligand, TRAIL expression", "result": 42.2, "unit": "fold"},
      {"measurement": "TNFAIP2 expression, 5A", "result": 5.4, "unit": "fold"},
      {"measurement": "TNFAIP2 expression, IM vs 5-aza-dC, MA", "result": 5.41, "unit": "fold"},
      {"measurement": "Tat-interacting protein TIP30 expression", "result": 8.9, "unit": "fold"},
      {"measurement": "Transcription Factor MAFF expression", "result": 8.1, "unit": "fold"},
      {"measurement": "Transcription factor ISGF-3 (Stat 1) expression", "result": 7.6, "unit": "fold"},
      {"measurement": "Transglutaminase (TGase) expression", "result": 144.6, "unit": "fold"},
      {"measurement": "Tripartite motif-containing protein 14, TRIM14 expression", "result": 6.2, "unit": "fold"},
      {"measurement": "Tumor antigen (L6) expression", "result": 17.5, "unit": "fold"},
      {"measurement": "Tumor necrosis factor-inducible (TSG-6) expression", "result": 10.3, "unit": "fold"},
      {"measurement": "Tyrosine protein kinase (CAK) gene expression", "result": 5.7, "unit": "fold"},
      {"measurement": "Ubiquitin-conjugating enzyme E2L6 (UBE2L6) expression", "result": 5.9, "unit": "fold"},
      {"measurement": "VAMP45 (vesicle-associated membrane protein 5) expression", "result": 9.1, "unit": "fold"},
      {"measurement": "mRNA expressed in osteoblast expression", "result": 32.5, "unit": "fold"},
      {"measurement": "uPA gene (urokinase-plasminogen activator gene) expression", "result": 4.4, "unit": "fold"}
    ]}
  ]
}
